The results in this text go back to PubChem BioAssay (NCI).

The structures appear in SMILES notation.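 All cell lines were grown in 96-well plates and treated with compound for 48 hours. At the GI50, growth is halved. At the TGI there is no net growth.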 Where only a bound is given, the exact number is not on record here.

Test systems include COLO 205 colon; HOP-92 NSCLC; K-562 leukemia; M14 melanoma; MDA-MB-231 breast; MOLT-4 leukemia; SK-MEL-28 melanoma; SK-OV-3 ovarian; U251 CNS; UACC-257 melanoma.
Common to all, as to experiment: DTP human tumour cell line panel, 48 h

What is called TGI is the concentration at which net growth stops. Take `O=C1/C(=C/c2[nH]ncc2-c2ccc(Cl)cc2)C(=O)N(c2ccccc2)C1c1ccccc1` (centres undefined): the total growth inhibition concentration (TGI) with COLO 205 colon turned out to be 32.8 µM; with HOP-92 NSCLC, 76 µM; in the experiment with K-562 leukemia it was 54.5 µM; in the experiment on M14 melanoma, 26 µM; in the experiment on MDA-MB-231 breast, 42.6 µM; in the experiment on MOLT-4 leukemia, 41 µM. In addition, the TGI in the experiment on SK-MEL-28 melanoma was 50.4 µM; with SK-OV-3 ovarian, 56.3 µM; in the experiment with U251 CNS, 50.2 µM; in the experiment with UACC-257 melanoma it was 64.7 µM.

For the compound `OCCCSCCO`, the TGI in the experiment on COLO 205 colon, with HOP-92 NSCLC, in the experiment with K-562 leukemia, in the experiment on M14 melanoma, in the experiment on MDA-MB-231 breast and in the experiment on MOLT-4 leukemia was more than 100 µM in each case. The concentration for total growth inhibition (TGI) in the experiment with SK-MEL-28 melanoma, with SK-OV-3 ovarian, with U251 CNS and in the experiment with UACC-257 melanoma was more than 100 µM in each case.

The term GI50 denotes the concentration giving 50% growth inhibition. Regarding `O=C(Nc1ccc(-n2ccc3c(NC(=O)c4ccccc4)nccc32)cc1)Nc1cccc(C(F)(F)F)c1`, the GI50 in the experiment on COLO 205 colon was 6.19 µM; in the experiment with HOP-92 NSCLC, 2.59 µM; in the experiment on K-562 leukemia, 2.68 µM; in the experiment on M14 melanoma, 3.83 µM; in the experiment with MDA-MB-231 breast, 4.65 µM; in the experiment on MOLT-4 leukemia, 2.65 µM. Besides, the results for the GI50 in the experiment on SK-MEL-28 melanoma, in the experiment with U251 CNS and with UACC-257 melanoma were 7.36 µM, 2.04 µM and 11.2 µM, respectively. For the same compound, the TGI with COLO 205 colon came to 19.6 µM; in the experiment on HOP-92 NSCLC, 11.7 µM; in the experiment with K-562 leukemia, 10.5 µM; in the experiment with M14 melanoma it was 15.7 µM; with MDA-MB-231 breast, 18.1 µM; in the experiment with MOLT-4 leukemia, 10.9 µM. Also, the results for the TGI with SK-MEL-28 melanoma, in the experiment with U251 CNS and in the experiment on UACC-257 melanoma were 21 µM, 10.8 µM and 26 µM, respectively.

As for `COC(=O)C1CC23C4=C(CCC41)CCC1CN4CC(C)C(CC(OC(C)=O)C12COC(C)=O)C43O` (centres undefined), the TGI in the experiment on COLO 205 colon, in the experiment on HOP-92 NSCLC, in the experiment with K-562 leukemia, with M14 melanoma, in the experiment on MDA-MB-231 breast and with MOLT-4 leukemia was more than 100 µM throughout. Also, the total growth inhibition concentration (TGI) in the experiment with SK-MEL-28 melanoma, in the experiment with SK-OV-3 ovarian, in the experiment with U251 CNS and in the experiment on UACC-257 melanoma was more than 100 µM throughout.

`CCOC(=O)c1c(-c2cccc(Cl)c2)c(C(=O)OC)c(C)c2sc(C=O)nc12`: the TGI with COLO 205 colon turned out to be 34.4 µM; with HOP-92 NSCLC, 34.2 µM; with K-562 leukemia it was 89.8 µM; in the experiment on M14 melanoma, 31.4 µM; in the experiment on MDA-MB-231 breast, 34.6 µM; in the experiment with MOLT-4 leukemia it was 48.1 µM. Further, the TGI with SK-MEL-28 melanoma is 34.5 µM; in the experiment with SK-OV-3 ovarian it was 92.2 µM; with U251 CNS it was 32.2 µM; in the experiment on UACC-257 melanoma, more than 100 µM.

Consider `Cc1n[n+]([O-])c(C)cc1[N+](=O)[O-]`, for which the TGI in the experiment with COLO 205 colon was 26.3 µM; in the experiment on HOP-92 NSCLC it was 34.3 µM; with M14 melanoma, 30.7 µM; in the experiment with MDA-MB-231 breast it was 39.8 µM; with SK-MEL-28 melanoma, 31.9 µM; in the experiment with SK-OV-3 ovarian, more than 100 µM. Further, the figures for the total growth inhibition concentration (TGI) in the experiment with U251 CNS and with UACC-257 melanoma were 51.9 µM and 29 µM, respectively.

With `Cc1oc(N)c(S(=O)(=O)c2cc3ccccc3n(O)c2=N)c1C`, the TGI with COLO 205 colon, in the experiment on HOP-92 NSCLC, with M14 melanoma, in the experiment on MDA-MB-231 breast, in the experiment with MOLT-4 leukemia and in the experiment on SK-MEL-28 melanoma was more than 100 µM throughout. In addition, the concentration for total growth inhibition (TGI) with SK-OV-3 ovarian, in the experiment with U251 CNS and in the experiment with UACC-257 melanoma was more than 100 µM in each case.

`CC1(C(=O)O)C[C@](C)(C(=O)OCc2ccccc2)C[C@](C)(C(=O)OCc2ccccc2)C1` (some centres undefined): the TGI in the experiment on COLO 205 colon is 33.8 µM; with HOP-92 NSCLC it was 54 µM; with K-562 leukemia it was more than 100 µM; in the experiment on M14 melanoma, more than 100 µM; in the experiment with MOLT-4 leukemia it was 67.6 µM; in the experiment with SK-MEL-28 melanoma, more than 100 µM. The total growth inhibition concentration (TGI) in the experiment with SK-OV-3 ovarian and in the experiment on UACC-257 melanoma was more than 100 µM each time.

As to `COc1cc(C2c3cc4c(cc3[C@@H](Nc3ccc(Oc5ccccc5)cc3)C3COC(=O)[C@H]23)OCO4)cc(OC)c1O` (some centres undefined), the total growth inhibition concentration (TGI) was 13 µM in the experiment with COLO 205 colon; more than 32.4 µM in the experiment with K-562 leukemia; 2 µM with MOLT-4 leukemia; more than 100 µM in the experiment with SK-MEL-28 melanoma; more than 52 µM in the experiment with SK-OV-3 ovarian; more than 27.9 µM in the experiment on U251 CNS. The compound further returned a TGI in the experiment with UACC-257 melanoma of 20.1 µM.

As for `CC1=CC(O)C(C(O)(C(F)(F)F)C(F)(F)F)C(C)(C)C1` (centres undefined), the concentration for total growth inhibition (TGI) in the experiment with COLO 205 colon, with HOP-92 NSCLC, in the experiment on K-562 leukemia, with MDA-MB-231 breast, in the experiment with MOLT-4 leukemia and in the experiment on SK-MEL-28 melanoma was more than 10 µM throughout. Moreover, the TGI in the experiment on SK-OV-3 ovarian, in the experiment on U251 CNS and in the experiment with UACC-257 melanoma was more than 10 µM in each case.

On to `Cc1cc2ccc(OC(=O)c3ccc(N=C(N)N)cc3)cc2oc1=O`, for which the TGI in the experiment with COLO 205 colon is 55.9 µM; with HOP-92 NSCLC, more than 100 µM; in the experiment on K-562 leukemia it was 74.9 µM; with M14 melanoma, 97.7 µM; in the experiment on MDA-MB-231 breast it was 49.2 µM; in the experiment on MOLT-4 leukemia, 54.4 µM. The TGI with SK-MEL-28 melanoma was 58.6 µM; in the experiment with SK-OV-3 ovarian, 46.4 µM; in the experiment on U251 CNS, 45.6 µM; with UACC-257 melanoma, more than 100 µM.

Consider `COc1ccc(-c2nn(-c3ccc(NC(=O)c4cc(Cl)cc(Cl)c4)cc3)cc2-c2ccncc2)cc1Cl`, for which the GI50 with COLO 205 colon was more than 100 µM; in the experiment with K-562 leukemia, 1.86 µM; in the experiment on M14 melanoma, 2.4 µM; in the experiment with MDA-MB-231 breast it was 1.39 µM; with MOLT-4 leukemia, 2.83 µM; in the experiment on SK-MEL-28 melanoma it was more than 100 µM. The GI50 in the experiment on U251 CNS was 1.84 µM; with UACC-257 melanoma it was more than 100 µM. Besides, the TGI in the experiment with COLO 205 colon was more than 100 µM; with K-562 leukemia, more than 100 µM; in the experiment on M14 melanoma it was 9.08 µM; in the experiment on MDA-MB-231 breast it was 4.85 µM; in the experiment with MOLT-4 leukemia, more than 100 µM; in the experiment on SK-MEL-28 melanoma, more than 100 µM. For the same compound, the TGI in the experiment with U251 CNS and with UACC-257 melanoma was more than 100 µM each time.

With `Nc1nnc(CCC(=O)Nc2cc(Cl)ccc2Cl)n1N`, the TGI with COLO 205 colon, with HOP-92 NSCLC, in the experiment on K-562 leukemia, in the experiment on M14 melanoma, with MOLT-4 leukemia and in the experiment on SK-MEL-28 melanoma was more than 100 µM each time. Further, the TGI with SK-OV-3 ovarian, in the experiment with U251 CNS and in the experiment with UACC-257 melanoma was more than 100 µM throughout.
